# Legend:
# Format in all cases: in vivo
# [1] = tested on: eastern black (E.B.) nightshade (Solanum ptycanthum); experiment: Test B pre-/postemergence plant response; details: Preemergence
# In short: (§1)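 Visual scoring from 0 (no effect) to 100 (complete control) against untreated controls was done 13 to 15 days after greenhouse treatment. Chemicals were formulated in a surfactant-containing non-phytotoxic solvent and applied to soil preemergence or to 1- to 4-leaf (2-18 cm) plants postemergence.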
# [2] = tested on: morningglory (Ipomoea coccinea); experiment: Test B pre-/postemergence plant response
# In short: as §1
# [3] = tested on: giant foxtail (Setaria faberii); experiment: Test B pre-/postemergence plant response
# In short: as §1
# [4] = tested on: lambsquarters (Chenopodium album); experiment: Test B pre-/postemergence plant response
# In short: as §1
# [5] = tested on: blackgrass (Alopecurus myosuroides); experiment: Test B pre-/postemergence plant response; details: for Blackgrass plant response rating: 8 g ai/ha
# In short: as §1
# [6] = tested on: corn (Zea mays); experiment: Test B pre-/postemergence plant response
# In short: as §1
# [7] = tested on: yellow nutsedge (Cyperus esculentus); experiment: Test B pre-/postemergence plant response
# In short: as §1
# [8] = tested on: wild oat (Avena fatua); experiment: Test B pre-/postemergence plant response
# In short: as §1
# [9] = tested on: velvetleaf (Abutilon theophrasti); experiment: Test B pre-/postemergence plant response
# In short: as §1
# [10] = tested on: bermudagrass (Cynodon dactylon); experiment: Test B pre-/postemergence plant response; details: for Bermudagrass plant response rating: 8 g ai/ha
# In short: as §1
# [11] = tested on: barnyardgrass (Echinochloa crus-galli); experiment: Test B flooded paddy test plant response
# In short: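 Paddy-water application to 2-leaf plants in pots held under 3 cm of flooding; response is a 0–100 visual control rating against controls after 13 to 15 days, and a dash marks a missing result.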
# [12] = tested on: windgrass (Apera spica-venti); experiment: Test B postemergence plant response; details: for Windgrass plant response rating: postemergence, 0-100 scale; for Plant response rating, Windgrass: Postemergence
# In short: (§2)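 Emerged plants, 1- to 4-leaf stage, treated; greenhouse 13–15 d; eye-scored vs untreated controls (0–100 scale).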
# [13] = tested on: chickweed (Stellaria media); experiment: Test B postemergence plant response; details: for Plant response rating, Chickweed: Postemergence
# In short: as §2
# [14] = tested on: canarygrass (Phalaris minor); experiment: Test B postemergence plant response; details: for Plant response rating, Canarygrass: Postemergence
# In short: as §2
# [15] = tested on: winter barley (Hordeum vulgare); experiment: Test B postemergence plant response; details: for Plant response rating, Barley: Postemergence, scale 0 to 100, 0 no effect, 100 complete control
# In short: as §2
# [16] = 8 g ai/ha, postemergence, 0-100 scale
# [17] = 16 g ai/ha, postemergence, 0-100 scale
# [18] = Postemergence, 31 g ai/ha, scale 0 to 100
# [19] = Postemergence, 62 g ai/ha, scale 0 to 100, 0 no effect, 100 complete control
# [20] = Preemergence, 31 g ai/ha, scale 0 to 100 (0 no effect, 100 complete control)
# [21] = Preemergence, 62 g ai/ha, 0 to 100 scale, 0 no effect, 100 complete control
# [22] = Preemergence, 8 g ai/ha, scale 0 to 100
# [23] = Preemergence, 16 g ai/ha, scale 0 to 100
# [24] = Postemergence, 16 g ai/ha, scale 0 to 100
# [25] = Preemergence, 16 g ai/ha, scale 0 to 100 (0 no effect, 100 complete control)
# [26] = 62 g ai/ha, scale 0 to 100, 0 no effect, 100 complete control
structure (smiles),measurement,setting,value
CCc1cc(-c2ccc(Br)cc2)nn1-c1c(O)cnn(C)c1=O [Compound 61],"Plant response rating, Nightshade, E. B.","[1]; 31 g ai/ha, scale 0 to 100 (0 no effect, 100 complete control)",0
same,"Plant response rating, Nightshade, E. B.","[1]; 62 g ai/ha, 0 to 100 scale, 0 no effect, 100 complete control",0
same,"Nightshade, E. B. plant response rating","[1]; 16 g ai/ha, scale 0 to 100",0
same,Morningglory plant response rating,[2]; [16],0
same,Morningglory plant response rating,[2]; [17],0
same,"Plant response rating, Morningglory",[2]; [18],0
same,"Plant response rating, Morningglory",[2]; [19],0
same,"Plant response rating, Morningglory",[2]; [20],0
same,"Plant response rating, Morningglory",[2]; [21],0
same,Morningglory plant response rating,[2]; [22],0
same,Morningglory plant response rating,[2]; [23],0
same,"Foxtail, Giant plant response rating",[3]; [16],98
same,"Plant response rating, Foxtail, Giant",[3]; [24],100
same,"Plant response rating, Foxtail, Giant",[3]; [18],100
same,"Plant response rating, Foxtail, Giant",[3]; [19],100
same,"Plant response rating, Foxtail, Giant",[3]; [20],100
same,"Plant response rating, Foxtail, Giant",[3]; [21],100
same,"Foxtail, Giant plant response rating",[3]; [22],75
same,"Foxtail, Giant plant response rating",[3]; [23],100
same,Lambsquarters plant response rating,[4]; [16],0
same,Lambsquarters plant response rating,[4]; [17],0
same,"Plant response rating, Lambsquarters",[4]; [18],0
same,"Plant response rating, Lambsquarters",[4]; [19],0
same,"Plant response rating, Lambsquarters",[4]; [20],0
same,"Plant response rating, Lambsquarters",[4]; [21],0
same,Lambsquarters plant response rating,[4]; [22],0
same,Lambsquarters plant response rating,[4]; [23],0
same,Blackgrass plant response rating,"[5]; postemergence, 0-100 scale",85
same,"Plant response rating, Blackgrass",[5]; [24],100
same,"Plant response rating, Blackgrass",[5]; [18],100
same,"Plant response rating, Blackgrass",[5]; [19],100
same,"Plant response rating, Blackgrass",[5]; [25],100
same,"Plant response rating, Blackgrass",[5]; [20],100
same,"Plant response rating, Blackgrass",[5]; [21],100
same,Blackgrass plant response rating,"[5]; Preemergence, scale 0 to 100",40
same,Corn plant response rating,[6]; [16],75
same,"Plant response rating, Corn",[6]; [24],100
same,"Plant response rating, Corn",[6]; [18],100
same,"Plant response rating, Corn",[6]; [19],100
same,"Plant response rating, Corn",[6]; [20],100
same,"Plant response rating, Corn",[6]; [21],100
same,Corn plant response rating,[6]; [22],95
same,Corn plant response rating,[6]; [23],98
same,"Nutsedge, Yellow plant response rating",[7]; [16],0
same,"Nutsedge, Yellow plant response rating",[7]; [17],0
same,"Plant response rating, Nutsedge, Yellow",[7]; [18],0
same,"Plant response rating, Nutsedge, Yellow",[7]; [19],0
same,"Plant response rating, Nutsedge, Yellow",[7]; [20],0
same,"Plant response rating, Nutsedge, Yellow",[7]; [21],0
same,"Nutsedge, Yellow plant response rating",[7]; [22],0
same,"Nutsedge, Yellow plant response rating",[7]; [23],0
same,"Oat, Wild plant response rating",[8]; [16],100
same,"Oat, Wild plant response rating",[8]; [17],100
same,"Plant response rating, Oat, Wild",[8]; [18],100
same,"Plant response rating, Oat, Wild",[8]; [19],100
same,"Plant response rating, Oat, Wild",[8]; [20],95
same,"Plant response rating, Oat, Wild",[8]; [21],100
same,"Oat, Wild plant response rating",[8]; [22],40
same,"Oat, Wild plant response rating",[8]; [23],90
same,Velvetleaf plant response rating,[9]; [16],0
same,Velvetleaf plant response rating,[9]; [17],0
same,"Plant response rating, Velvetleaf",[9]; [18],0
same,"Plant response rating, Velvetleaf",[9]; [19],0
same,"Plant response rating, Velvetleaf",[9]; [20],0
same,"Plant response rating, Velvetleaf",[9]; [21],0
same,Velvetleaf plant response rating,[9]; [22],0
same,Velvetleaf plant response rating,[9]; [23],0
same,Bermudagrass plant response rating,"[10]; postemergence, 0-100 scale",55
same,"Plant response rating, Bermudagrass",[10]; [24],70
same,"Plant response rating, Bermudagrass",[10]; [18],95
same,"Plant response rating, Bermudagrass",[10]; [19],100
same,Bermudagrass plant response rating,"[10]; Preemergence, scale 0 to 100 (0 no effect, 100 complete control)",55
same,"Plant response rating, Bermudagrass",[10]; [25],80
same,"Plant response rating, Bermudagrass",[10]; [20],90
same,"Plant response rating, Bermudagrass",[10]; [21],95
same,"Plant response rating, Barnyardgrass","[11]; Flood (flooded paddy test), 62 g ai/ha, scale 0 to 100, 0 no effect, 100 complete control",0
same,"Plant response rating, Barnyardgrass","[11]; Flood (flooded paddy test), 125 g ai/ha, scale 0 to 100, 0 no effect, 100 complete control",50
same,"Plant response rating, Barnyardgrass","[11]; Flood (flooded paddy test), 250 g ai/ha, scale 0 to 100, 0 no effect, 100 complete control",100
same,"Plant response rating, Barnyardgrass","[11]; Flood, 31 g ai/ha, scale 0 to 100",0
same,Windgrass plant response rating,[12]; 8 g ai/ha,90
same,Windgrass plant response rating,[12]; 16 g ai/ha,100
same,"Plant response rating, Windgrass","[12]; 31 g ai/ha, scale 0 to 100",100
same,"Plant response rating, Windgrass",[12]; [26],100
same,Chickweed plant response rating,[13]; [16],0
same,"Plant response rating, Chickweed","[13]; 16 g ai/ha, scale 0 to 100",0
same,"Plant response rating, Chickweed","[13]; 31 g ai/ha, scale 0 to 100",0
same,"Plant response rating, Chickweed",[13]; [26],0
same,Canarygrass plant response rating,[14]; [16],80
same,"Plant response rating, Canarygrass","[14]; 16 g ai/ha, scale 0 to 100",85
same,"Plant response rating, Canarygrass","[14]; 31 g ai/ha, scale 0 to 100",85
same,"Plant response rating, Canarygrass",[14]; [26],85
same,Barley plant response rating,[15]; [16],70
same,"Plant response rating, Barley",[15]; 16 g ai/ha,90
same,"Plant response rating, Barley",[15]; 31 g ai/ha,90
same,"Plant response rating, Barley",[15]; 62 g ai/ha,90
